In patent US20130338383A1, “PREGNANOLONE DERIVATIVES SUBSTITUTED IN 3ALPHA-POSITION WITH THE CATIONIC GROUP, METHOD OF THEIR PRODUCTION, USAGE AND PHARMACEUTICAL PREPARATION INVOLVING THEM” (FYZIOLOGICKY USTAV AKADEMIE VED CESKE REPUBLICKY, V.V.I., priority 2011, published 2013):
Read-outs that look alike come from different tables or passages of the source.

Key:
[1] = biological target: T1, NR1/NR2B NMDA receptors (Rattus norvegicus, UniProt P35439+Q00960); assay: Patch-clamp inhibition of glutamate-elicited currents in HEK293 cells transfected with NR1-1a/NR2B; type: cell-based; conditions: for IC50: calculated from relative inhibition with Hill's coefficient 1.2; for IC50 / Relative inhibition effect (%): 5 cells; for Relative inhibition effect (%): 1 mmol·l^−1 glutamic acid
T1 construct: expressed in transfected cells; host or cells: HEK293 cells (ATCC CRL1573)
Method: The membrane potentials were maintained at −60 mV or +60 mV. Patch-clamp technique was used to record the currents from cultivated HEK293 cells with transfected NR1/NR2B NMDA receptors. Relative inhibition elicited by the compound from the example 2 was calculated from the formula (1−a/b)*100(%).
Degree of activated NMDA receptor inhibition by steroid cationic compounds was measured in vitro electrophysiologically on cultivated HEK293 cells (Human Embryonic Kidney 293 cells) 24-48 h after the transfection with DNA plasmids, coding NR1-1a and NR2B subunit of NMDA receptor. Transfected cells were identified by means of fluorescent green protein (GFP) fluorescence. Its genus was transfected together with the both receptor subunit genes.
Steroid-containing solutions were prepared from fresh solution (20 mmol·l^−1, of steroid dissolved in dimethyl-sulfoxide, DMSO), which was added to the extracellular solution containing 1 mmol·l^−1 glutamic acid and 10 μmol·l^−1 of glycine. Same concentrations of DMSO were added to all other extracellular solutions.
Current responses produced by extracellular application of glutamic acid solution (1 mmol·l^−1) were measured from the whole cell by patch-clamp technique, which is used for the study of transport of charged particles through model and also natural biological membranes. The currents were measured at membrane potential maintained at −60 mV and +60 mV.
HEK293 cells (American Type Culture Collection, ATTC No. CRL1573, Rockville, Md.) were cultivated in Opti-MEM® I media (Invitrogen) with addition of 5% fetal bovine serum at 37° C. and transfected with NR1-1a/NR2B/GFP plasmids, as described in the scientific literature (Cais et al., 2008). Same amounts (0.3 μg) of cDNA coding NR1, NR2 and GFP (green fluorescent protein) (pQBI 25, Takara, Japan) were mixed with 0.9 μl of Matra-A Reagent (IBA, Göttingen, Germany) and added to confluent HEK293 cells cultivated in v 24-pit cultivating plate. After trypsination, the cells were re-suspended in Opti-MEM® I containing 1% fetal bovine serum. Subsequently, 20 mmol·l^−1 MgCl2, 1 mmol D,L-2-amino-5-phosphonopentanoic acid, 3 mmol·l^−1 kynurenic acid was added to the mixture and cells were inoculated on the polylysine-coated glass plates having 25 mm in diameter. The following genes coding NMDA receptor subunits were used for transfection: NR1-1a (GenBank accession no. U08261) and NR2B (GenBank accession no. M91562).
HEK293 Cultured cells were used for electrophysiological investigations with a latency of 16-40 h after transfection. Whole-cell currents were measured by patch-clamp amplifier (Axopatch 1D; Axon Instruments, Inc. Foster City, USA) after capacitance and serial resistance (<10 MΩ) compensation to 80-90%. Agonist-induced responses were filtered to 1 kHz (8-pole Bessel filter; Frequency Devices, Haverhill, USA), digitized with sampling frequency of 5 kHz and analyzed by pClamp version 9 software (Axon Instruments, USA). Micropipettes made of borosilicate glass were filled with intracellular solution, containing 125 mmol·l^−1 D-glukonic acid, 15 mmol·l^−1 cesium chloride, 5 mmol·l^−1 EGTA, 10 mmol·l^−1 HEPES buffer, 3 mmol·l^−1 magnesium chloride, 0.5 mmol·l^−1 calcium chloride and 2 mmol·l^−1 magnesium-salt of ATP (pH adjusted to 7.2 by cesium hydroxide solution). Extracellular solution (ECS) contained 160 mmol·l^−1 sodium chloride, 2.5 mmol·l^−1 potassium chloride, 10 mmol·l^−1 HEPES, 10 mmol·l^−1 glucose, 0.2 mmol·l^−1 EDTA a 0.7 mmol·l^−1 calcium chloride (pH adjusted to 7.3 by sodium hydroxide solution). Glycine was added to both testing and control solution.

[2] = biological target: T1, NR1/NR2B NMDA receptors; conditions: pregnanolone sulfate 100 μmol·l^−1, recombinant NR1/NR2B receptors, n=5, Petrovic et al., 2005, cited from earlier work
[3] = system: NMDA receptors on hipocampal neurones; conditions: pregnanolone sulfate 100 μmol·l^−1; responses elicited by NMDA; −60 mV; n=5; Petrovic et al., 2005; cited from earlier work
[4] = system: mice strain B6; assay: Spontaneous locomotor activity in the open-field test; type: in vivo; conditions: 10 mg/kg subcutaneously in cyclodextrin, 60 min session
Method: Animals were tracked with iTrack (Biosignal group, USA) and total path during this session was evaluated. The pregnanolone argininate was applied subcutaneously (dissolved in cyclodextrin) prior to behavioral observations at doses 10 mg/kg; control animals were injected with saline and cyclodextrin.

[5] = system: Long-Evans male rats; assay: Carousel maze (active allothetic place avoidance, AAPA): locomotion and cognitive function; type: in vivo
Method: Effect of pregnanolone argininate and nitrate and action of dizocilpine (a non-competitive antagonist of NMDA receptors; standardly used as positive control and referred hereafter as dizocilpine) on the behavior of rats in Carousel maze (active allothetic place avoidance (AAPA)), a spatial task requiring spatial orientation and cognitive functions
The effect of compounds on cognitive behaviors and locomotion was assessed using Carousel maze (active allothetic place avoidance (AAPA) task), which requires intact hippocampi and ability of animals to navigate in space using distinct reference frames (spatial navigation and “cognitive coordination”) (Wesierska et al., 2005) and it also allows measuring changes in the accompanying locomotor activity. AAPA task training involves animals trained to move over a slowly rotating uniform circular arena, on which a prohibited sector is defined, entering which is punished by a mild footshock. A shock sector and its position can be determined solely by its relationship to distal orienting cues in the room (Stuchlik et al., 2008).
This task is highly dependent upon hippocampal formation, with unilateral reversible ablation of this structure with TTX leading to avoidance deficit (Cimadevilla et al., 2001). Animals solving this task should walk in a direction opposite to arena rotation; otherwise it would be repeatedly brought to a fixed sector by arena rotation. We conducted 4 acquisition session of AAPA task, during which the sector location was always reinforced and remained stable throughout the training. Each session lasted 20 min.
The effect was tested on 2-month-old Long-Evans male rats. Control animals obtained cyklodextrine (s.c.), experimental groups received subcutaneous (s.c.) injections of the compound from example 2 at doses 1 mg/kg (dissolved in cyclodextrin). Intraperitonal application of dizocilpine (a non-competitive NMDA receptor antagonist; showing significant neuroprotective activity but exerting cognition-disturbing and psychotomimetic effects) was used as a positive control. Dizocilpine was applied at doses 0.15 mg/kg. It is worth noting that dizocilpine (albeit its experimental neuroprotective activity) is often used to model schizophrenia-like behaviors in […] and it has been repeatedly shown to exert a dose-dependent learning deficit and hyperlocomotion.
Locomotor activity of animals was assessed in the AAPA as total distance traveled in the coordinate frame of the arena (without passive rotation) in each 20-min session.
Another parameter, which can be measured and which brings a spatial aspect to behavioral analysis, is number of entrances into prohibited sector (occasionally termed “number of errors”).

[6] = system: male mice strain B6; assay: Anesthetic effect after i.p. injection; type: in vivo; conditions: 100 mg/kg i.p. in β-cyclodextrine
Method: Anesthetic effect of 3α5β pregnanolon argininate was tested on 2-month-old male mice strain B6. Animals were randomly assigned to 3 groups per 7 animals each. The first group was injected i.p. with saline, the second group received i.p. cyclodextrine, the third group obtained received the pregnanolon argininate at a dose 100 mg/kg (dissolved in β-cyclodextrine).

[7] = dizocilpine 0.15 mg/kg intraperitoneal, positive control

T1 sequence (Q00960 27-1482, other chains not shown): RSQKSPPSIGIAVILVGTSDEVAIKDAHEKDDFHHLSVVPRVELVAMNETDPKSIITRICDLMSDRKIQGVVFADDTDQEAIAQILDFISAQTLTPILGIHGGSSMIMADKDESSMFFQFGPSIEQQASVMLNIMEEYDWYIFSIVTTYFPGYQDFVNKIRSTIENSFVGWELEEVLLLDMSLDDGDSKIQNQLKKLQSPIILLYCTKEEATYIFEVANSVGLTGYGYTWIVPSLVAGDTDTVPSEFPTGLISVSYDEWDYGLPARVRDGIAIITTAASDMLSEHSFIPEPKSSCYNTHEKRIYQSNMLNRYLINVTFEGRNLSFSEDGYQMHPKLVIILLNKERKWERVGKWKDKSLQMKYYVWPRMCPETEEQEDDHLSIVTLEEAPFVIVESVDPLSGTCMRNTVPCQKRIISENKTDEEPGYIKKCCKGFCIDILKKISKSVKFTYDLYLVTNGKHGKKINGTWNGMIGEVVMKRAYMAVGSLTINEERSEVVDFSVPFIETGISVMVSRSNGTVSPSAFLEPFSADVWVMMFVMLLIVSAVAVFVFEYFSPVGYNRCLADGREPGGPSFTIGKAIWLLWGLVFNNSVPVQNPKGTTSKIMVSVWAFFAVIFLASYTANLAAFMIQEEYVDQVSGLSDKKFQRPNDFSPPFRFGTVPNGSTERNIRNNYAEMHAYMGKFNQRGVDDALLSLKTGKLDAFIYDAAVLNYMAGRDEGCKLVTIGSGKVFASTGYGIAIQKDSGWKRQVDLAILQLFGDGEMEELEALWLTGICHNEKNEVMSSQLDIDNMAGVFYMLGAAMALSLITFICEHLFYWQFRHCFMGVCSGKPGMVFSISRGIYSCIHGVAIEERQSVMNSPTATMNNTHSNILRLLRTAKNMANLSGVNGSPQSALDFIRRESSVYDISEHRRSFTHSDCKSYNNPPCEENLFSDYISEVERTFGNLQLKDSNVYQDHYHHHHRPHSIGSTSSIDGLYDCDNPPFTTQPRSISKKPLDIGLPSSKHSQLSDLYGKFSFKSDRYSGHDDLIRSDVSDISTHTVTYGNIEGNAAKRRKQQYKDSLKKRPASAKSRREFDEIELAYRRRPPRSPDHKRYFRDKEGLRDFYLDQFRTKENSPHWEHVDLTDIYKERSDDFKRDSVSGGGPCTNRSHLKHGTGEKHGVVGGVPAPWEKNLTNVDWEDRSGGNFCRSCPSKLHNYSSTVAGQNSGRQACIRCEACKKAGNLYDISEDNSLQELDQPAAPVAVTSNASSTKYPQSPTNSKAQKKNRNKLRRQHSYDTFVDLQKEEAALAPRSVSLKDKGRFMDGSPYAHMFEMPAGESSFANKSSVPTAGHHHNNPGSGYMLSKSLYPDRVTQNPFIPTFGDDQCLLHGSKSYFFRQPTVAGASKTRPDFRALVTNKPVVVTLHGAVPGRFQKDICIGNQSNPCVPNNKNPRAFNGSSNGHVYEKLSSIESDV

Question: Which IC50 [1] does the source give for “5β-pregnanolon-3α-yl-sulfate [Pregnanolone sulfate]” here?
Answer: 55 µM

Question: What about the “Relative inhibition effect (%)” value ([2]; listed as 5β-pregnanolon-3α-yl-sulfate) of the same compound?
Answer: 67%

Question: And the “Relative inhibition effect (%)” value ([2]; listed as pregnanolone sulfate)?
Answer: 67.2±8.2%

Question: And the mean inhibition effect [3]?
Answer: 71.3±5.0%

Question: Which “dependence of average inhibition on the maintained membrane potential” value ([1]; 10 μmol·l^−1, FIG. 1B) does the source give for `CC(=O)O.CC(=O)O.CC(=O)[C@H]1CC[C@H]2[C@@H]3CC[C@@H]4C[C@H](OC(=O)[C@@H](N)CCCNC(=N)N)CC[C@]4(C)[C@H]3CC[C@]12C` [Example 2, 20-Oxo-5β-pregnan-3α-yl L-argininate diacetate salt] here?
Answer: independence

Question: What about the “reversibility of inhibition of the current response” value ([1]; 10 μmol·l^−1 applied simultaneously with 1 mmol·l^−1 glutamic acid, −60 mV or +60 mV, FIG. 1A) of the same compound?
Answer: reversible inhibition

Question: And the IC50 [1]?
Answer: 5.3 µM

Question: What about the “Relative inhibition effect (%)” value ([1]; steroid 10 μmol·l^−1) of the same compound?
Answer: 69.2 ± 9.6%

Question: And the “spontaneous locomotor activity (total path)” value [4]?
Answer: did not significantly alter

Question: What about the “locomotor activity: total distance per session in AAPA” value ([5]; compound from example 2 1 mg/kg s.c. in cyclodextrin (nitrate dose not given), 20-min session, vs cyclodextrin controls, diacetate salt, 1 mg/kg) of the same compound?
Answer: no significant effect

Question: And the “locomotor activity: total distance per session in AAPA” value ([5]; compound from example 2 1 mg/kg s.c. in cyclodextrin (nitrate dose not given), 20-min session, vs cyclodextrin controls, listed as pregnanolone argininate, diacetate salt, 1 mg/kg)?
Answer: failed to exhibit either decrease or increase

Question: What about the “number of entrances into shock sector (spatial cognition)” value ([5]; compound from example 2 1 mg/kg s.c. in cyclodextrin (nitrate dose not given), vs cyclodextrin controls, diacetate salt, 1 mg/kg) of the same compound?
Answer: no significant effect

Question: What about the “number of entrances into shock sector (spatial cognition)” value ([5]; compound from example 2 1 mg/kg s.c. in cyclodextrin (nitrate dose not given), vs cyclodextrin controls, listed as pregnanolone argininate, diacetate salt, 1 mg/kg) of the same compound?
Answer: do not caused worsening

Question: What about the “time after injection to anesthesia” value [6] of the same compound?
Answer: 5 to 20 min

Question: And the “time after injection to decreased locomotor activity” value [6]?
Answer: 3 to 15 min

Question: What about the “time to spontaneous awakening” value [6] of the same compound?
Answer: 1 to 3 h

Question: For `CC(=O)[C@H]1CC[C@H]2[C@@H]3CC[C@@H]4C[C@H](OC(=O)CN(C)C(=N)N)CC[C@]4(C)[C@H]3CC[C@]12C.Cl` [Example 5, 20-Oxo-5β-pregnan-3α-yl 2-(methylguanidino) acetate hydrochloride], which IC50 [1] is on record?
Answer: 3.3 ± 0.7 µM

Question: And the “Relative inhibition effect (%)” value ([1]; steroid 10 μmol·l^−1)?
Answer: 79.2 ± 4.2%

Question: Which results are given for `CC(=O)[C@H]1CC[C@H]2[C@@H]3CC[C@@H]4C[C@H](OC(=O)CCC[N+](C)(C)C)CC[C@]4(C)[C@H]3CC[C@]12C.[Cl-]` [Example 6, 20-Oxo-5β-pregnan-3α-yl 4-(trimethylammonium) butanoate chloride]?
Answer: IC50 [1]: 5.9 µM; Relative inhibition effect (%) ([1]; steroid 10 μmol·l^−1): 65.4 ± 3.4%

Question: Which IC50 [1] does the source give for `CCC(CCC(=O)O[C@@H]1CC[C@@]2(C)[C@H](CC[C@@H]3[C@@H]2CC[C@]2(C)[C@@H](C(C)=O)CC[C@@H]32)C1)[N+](C)(C)C.[Cl-]` (stereo partly drawn) [Example 7, 20-Oxo-5β-pregnan-3α-yl 4-(trimethylammonium) hexanoate chloride] here?
Answer: 23.6 µM

Question: What about the “Relative inhibition effect (%)” value ([1]; steroid 100 μmol·l^−1, −60 mV) of the same compound?
Answer: 85.6 +/− 2.3%

Question: Which results are given for `CC(=O)[C@H]1CC[C@H]2[C@@H]3CC[C@@H]4C[C@H](OC(=O)C[N+](C)(C)C)CC[C@]4(C)[C@H]3CC[C@]12C.[Cl-]` [Example 8, 20-Oxo-5β-pregnan-3α-yl-2-(trimethylammonium) acetate hydrochloride]?
Answer: IC50 [1]: 22.4 µM; Relative inhibition effect (%) ([1]; steroid 30 μmol·l^−1, −60 mV): 57.0 ± 9.6%

Question: Which IC50 [1] does the source give for `CC(=O)C1CCC2C3CC[C@@H]4C[C@H]([N+](C)(C)C)CC[C@]4(C)C3CC[C@]12C.[Cl-]` (stereo partly drawn) [Example 10, 3-(Trimethylammonium)-5β-pregnan-20-one chloride] here?
Answer: 107 µM

Question: What about the “Relative inhibition effect (%)” value ([1]; steroid 100 μmol·l^−1, −60 mV) of the same compound?
Answer: 69.2 ± 9.6%

Question: What about the melting point of the same compound?
Answer: 237 to 240 °C (dec.)

Question: Which results are given for `C[C@]12N[C@H](Cc3ccccc31)c1ccccc12` [dizocilpine, reference compound]?
Answer: locomotor activity: total distance per session in AAPA [5, 7]: stimulated the locomotor activity; number of entrances into shock sector (spatial cognition) [5, 7]: dose-dependently disrupted; number of entrances into shock sector (spatial cognition) ([5]; dizocilpine 0.15 mg/kg intraperitoneal, positive control, listed as MK-801): disrupts
